These results are taken from patent US5332734A, “Oxazinone derivative” (Japan Tobacco, Incorporated, priority 1991, dated 1994).

By pIC50 is commonly meant the negative decadic logarithm of the IC50, by convention in mol/L. A high value points to a low IC50.

pIC50: −log10 of the molar value.

Holding throughout (type): biochemical
For experiment [1], the target named is T1, human leukocyte elastase (HLE) (Homo sapiens, UniProt P08246).
T1 construct: applying a density gradient centrifugal operation so as to obtain neutrophils; from tissue; host or cells: neutrophils from human venous blood
T1 sequence (P08246 30-267): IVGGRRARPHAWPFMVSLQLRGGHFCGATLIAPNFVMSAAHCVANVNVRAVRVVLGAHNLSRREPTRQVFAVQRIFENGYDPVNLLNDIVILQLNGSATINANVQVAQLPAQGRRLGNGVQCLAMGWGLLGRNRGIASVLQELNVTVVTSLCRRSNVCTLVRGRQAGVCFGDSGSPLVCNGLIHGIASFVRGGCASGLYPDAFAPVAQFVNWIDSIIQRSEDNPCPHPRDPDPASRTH
The experiment can be described thus: HLE inhibitory activity. The conditions noted are these: HLE 5.63 nM, substrate 0.2625 mM, pH 8.6, 37° C. As for the experimental part: (§1) Inhibotory activities of the oxadinone derivative of the present invention against human leukocyte elastase (HLE), human sputum elastase (HSE), human cathepsin G (HCG), bovine pancreatic α-chymotrypsin (CYT) and bovine pancreatic trypsin (TRY) were measured as follows:
(1) Measurement of HLE Inhibitory Activity
A buffy coat was obtained by subjecting human vein blood to centrifugal separation, followed by adding distilled water to the buffy coat thus obtained for performing a low tension treatment so as to collapse erythrocytes. A mixture consisting of 10 parts of a 33.4% Conrey 400 solution and 24 parts of 9% of Ficoll solution was added to the residual blood cell component, followed by applying a density gradient centrifugal operation so as to obtain neutrophils. The neutrophil fraction was washed three times with Hanks' buffer so as to recover cells, which were frozen at -80° C. for preservation until the cells were used. The cells preserved under a frozen state were thawed with warm water of 37° C. and suspended in the lysis buffer (0.1M Tris-HCl pH 7.5, 1M MgCl2, 0.1% Brij 35), the amount of the buffer being 9 times as much as that of the cells. Then, the suspended cells were collapsed with polotron while cooling the suspension with ice. Then, the suspension was subjected to a centrifugal separation at 100,000×g for one hour so as to remove the precipitate. Also, a buffer (5 mM Tris-HCl pH 7.5, 1M NaCl, 1.1% Brij 35) was added to the supernatant in an amount twice as much as the supernatant so as to prepare a crude solution of an enzyme extract. The crude solution of an enzyme extract was adsorbed on an aprotinin affinity column. Further, the active fraction eluted with a 50 ml glycine-HCl solution (pH 3.3, 1M NaCl, 0.1% Brij 35) was passed through a MONO S ion-exchange chromatography. The active fraction eluted with a 2M NaCl linear gradient was dialyzed and, then, subjected to a freeze-drying so as to prepare an enzyme sample.
A test compound to be detected was dissolved in DMSO (for fluorometry) so as to prepare solutions of various concentrations. Then, the solution of 0.2M Tris-HCl (pH 9.6) was added to each of the solutions in an amount twice as much as the solution so as to prepare a test solution. On the other hand, a synthetic substrate (MeOSuc-Ala-Pro-Val-pNA; FUNAKOSHI) was dissolved in DMSO, followed by adding 0.2M tris-HCl solution (pH 8.6) to the solution in an amount twice as much as the solution so as to prepare a substrate solution.
A microplate (NUNK) provided with 96 wells was used for the reaction. The reaction was repeatedly carried out 6 times for each concentration of the test compound. Each of 140 μl of the enzyme solution (0.2M Tris-HCl, pH 8.6), 30 μl of the test material solution and 30 μl of the substrate solution was pre-incubated for 10 minutes at 37° C. for each well of the microplate. After incubation of a mixture of the enzyme solution and the test material solution for 10 minutes, the substrate solution was added so as to carry out the enzyme reaction. For determining the substrate decomposition, the absorbance (405 run) of the released pNA was measured by a microplate reader (MTP-100; CORONA), and the substrate decomposition was calculated on the basis of the average value of the absorbances repeatedly measured 6 times. The inhibitory concentration of the test compound relative to the decomposition amount of the substrate in the case where the test compound was not added was obtained as IC50 value.

Experiment [2] addresses T2, bovine pancreatic α-chymotrypsin (CYT) (Bos taurus, UniProt P00766).
T2 construct: purchased Sigma Inc; host or cells: bovine pancreas (by its name)
In words: CYT inhibitory activity. The conditions noted are these: CYT 3.4 nM, substrate 0.273 mM, pH 8.0. As for the experimental part:
as §1
(4) Measurement of CYT Inhibitory Activity
(§2) a) Enzyme Preparing Method Bought from Sigma Inc.
Employed was a measuring method similar to that described previously in conjunction with the measurement of the HLE inhibiting activity, except that used was a buffer solution of pH 8.0. The final concentrations of CYT and the synthetic substrate (Ac-Ala-Ala-Pro-Phe-pNA; FUNAKOSHI) in the solution of the enzyme reaction were 3.4 nM and 0.273 mM, respectively.

For experiment [3], the target named is T3, human sputum elastase (HSE) (Homo sapiens, UniProt P08246).
T3 construct: purchased Sigma Inc; host or cells: human sputum (by its name)
T3 sequence (P08246 30-247 limits assumed): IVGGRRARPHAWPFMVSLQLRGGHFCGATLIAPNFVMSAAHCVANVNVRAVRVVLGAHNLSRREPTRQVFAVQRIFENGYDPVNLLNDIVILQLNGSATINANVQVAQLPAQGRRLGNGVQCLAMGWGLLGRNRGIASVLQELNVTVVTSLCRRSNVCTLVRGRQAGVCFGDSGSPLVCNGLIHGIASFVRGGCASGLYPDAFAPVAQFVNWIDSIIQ
In words: HSE inhibitory activity. Particulars: HSE 10 nM, substrate 0.25 mM, pH 7.0. As for the experimental part: as §1
(2) Measurement of HSE Inhibiting Activity
as §2
Employed was a measuring method similar to that described previously in conjunction with the measurement of the HLE inhibitory activity, except that used was a buffer solution of pH 7.0. The final concentrations of HSE and the synthetic substrate (MeOSuc-Ala-Ala-Pro-Phe-pNA; FUNAKOSHI) in the solution of the enzyme reaction were 10 nM and 0.25 mM, respectively.

The target in the next experiment is T4, human cathepsin G (HCG) (Homo sapiens, UniProt P08311).
T4 construct: purchased Cosmo Bio Inc
T4 sequence (P08311 21-255): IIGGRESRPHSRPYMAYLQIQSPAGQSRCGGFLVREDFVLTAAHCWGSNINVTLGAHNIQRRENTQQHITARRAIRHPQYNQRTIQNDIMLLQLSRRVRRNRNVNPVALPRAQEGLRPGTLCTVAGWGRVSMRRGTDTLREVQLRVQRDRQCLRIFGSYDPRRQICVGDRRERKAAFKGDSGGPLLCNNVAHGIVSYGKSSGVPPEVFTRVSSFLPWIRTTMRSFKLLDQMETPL
In words: HCG inhibitory activity. The conditions noted are these: HCG 50 nM, substrate 0.5 mM, pH 7.5. As for the experimental part: as §1
(3) Measurement of HCG Inhibitory Activity
a) Enzyme Preparing Method Bought from Cosmo Bio Inc.
Employed was a measuring method similar to that described previously in conjunction with the measurement of the HLE inhibiting activity, except that used was a buffer solution of pH 7.5. The final concentrations of HCG and the synthetic substrate (Ac-Ala-Ala-Pro-Phe-pNA; FUNAKOSHI) in the solution of the enzyme reaction were 50 nM and 0.5 mM, respectively.

For the compound `Cc1cccc2nc([C@@H](NC(=O)OCC3c4ccccc4-c4ccccc43)C(C)C)oc(=O)c12` [Compound 1, 2-{1(S)-[(9-fluorenylmethoxycarbonyl)amino]-2-methylpropyl}-5-methyl-4H-3,1-benzoxazin-4-one], the pIC50 was 6.62 in experiment [1], 5.32 in experiment [2], 6.51 in experiment [3] and under 5.26 on human cathepsin G (HCG).
As for `Cc1cccc2nc([C@H](CC(C)C)NC(=O)OCC3c4ccccc4-c4ccccc43)oc(=O)c12` [Compound 2, 2-{1(S)-[(9-fluorenylmethoxycarbonyl)amino]-3-methylbutyl}-5-methyl-4H-3,1-benzoxazin-4-one], the pIC50 in experiment [1] was 6.14; in experiment [2] it was 5.35; in experiment [3] it was 6.52; against human cathepsin G (HCG) it was under 5.27.
